Measurements as given in EP1019392B1, “TRICYCLIC AMIDES USEFUL FOR INHIBITION OF G-PROTEIN FUNCTION AND FOR TREATMENT OF PROLIFERATIVE DISEASES” (SCHERING CORPORATION, priority 1995, dated 1997).
Structures can show the parent of a compound that is named as a salt. Where two headings read alike, the source gives them in different places.

How the values were obtained:
[1] = target: T1, farnesyl protein transferase (FPT) (Rattus norvegicus, UniProt Q02293+Q04631); test: In vitro enzyme assay: inhibition of farnesyl protein transferase (transfer of [3H]farnesyl to Ras-CVLS); format: biochemical; details: partially purified rat brain FPT, Ras-CVLS
T1 construct: were partially purified from rat brain by ammonium sulfate fractionation followed by Q-Sepharose; from tissue; host or cells: rat brain
Description: • 1. In vitro enzyme assays: Inhibition of farnesyl protein transferase and geranylgeranyl protein transferase. […] Human farnesyl protein transferase was also expressed in E. coli, using cDNA clones encoding both the a and b subunits. […] Human farnesyl protein transferase was partially-purified from the soluble protein fraction of E. coli as described above. […] Two forms of val^12-Ha-Ras protein were prepared as substrates for these enzymes, differing in their carboxy terminal sequence. One form terminated in cysteine-valine-leucine-serine (Ras-CVLS) the other in cystein-valine-leucine-leucine (Ras-CVLL). Ras-CVLS is a substrate for the farnesyl protein transferase while Ras-CVLL is a substrate for geranylgeranyl protein transferase I. The cDNAs encoding these proteins were constructed so that the proteins contain an amino-terminal extension of 6 histidine residues. Both proteins were expressed in Escherichia coli and purified using metal chelate affinity chromatography. The radiolabelled isoprenyl pyrophosphate substrates, [^3H]farnesyl pyrophosphate and [^3H]geranylgeranyl pyrophosphate, were purchased from DuPont/New England Nuclear. […] The reaction was allowed to proceed for 30 minutes at room temperature and then stopped with 0.5 ml of 4% sodium dodecyl sulfate (SDS) followed by 0.5 ml of cold 30% TCA. Samples were allowed to sit on ice for 45 minutes and precipitated Ras protein was then collected on GF/C filter paper mats using a Brandel cell harvester. […] Percent inhibition was calculated relative to the DMSO vehicle control. The geranylgeranyl protein transferase I assay was essentially identical to the farnesyl protein transferase assay described above, with two exceptions: [^3H]geranylgeranylpyrophosphate replaced farnesyl pyrophosphate as the isoprenoid donor and Ras-CVLL was the protein acceptor. […] Cell-Based Assay: Transient expression of val^12-Ha-Ras-CVLS and val^12-Ha-Ras-CVLL in COS monkey kidney cells: Effect of farnesyl protein transferase inhibitors on Ras processing and on disordered cell growth induced by transforming Ras. COS monkey kidney cells were transfected by electroporation with the plasmid pSV-SPORT (Gibco/BRL) containing a cDNA insert encoding either Ras-CVLS or Ras-CVLL, leading to transient overexpression of a Ras substrate for either farnesyl protein transferase or geranylgeranyl protein transferase I, respectively (see above). Following electroporation, cells were plated into 6-well tissue culture dishes containing 1.5 ml of Dulbecco's-modified Eagle's media (GIBCO, Inc.) supplemented with 10% fetal calf serum and the appropriate farnesyl protein transferase inhibitors. After 24 hours, media was removed and fresh media containing the appropriate drugs was re-added. 48 hours after electroporation cells were examined under the microscope to monitor disordered cell growth induced by transforming Ras. Cells expressing transforming Ras become more rounded and refractile and overgrow the monolayer, reminiscent of the transformed phenotype. Cells were then photographed, washed twice with 1 ml of cold phosphate-buffered saline (PBS) and removed from the dish by scraping with a rubber policeman into 1 ml of a buffer containing 25 mM Tris, pH 8.0; 1 mM ethylenediamine tetraacetic acid; 1 mM phenylmethylsulfonyl fluoride; […] leupeptin; and 0.1 mM pepstatin. Cells were lysed by homogenization and cell debris was removed by centrifugation at 2000 x g for 10 min. Cellular protein was precipitated by addition of ice-cold trichloroacetic acid and redissolved in […] of SDS-electrophoresis sample buffer. […] Proteins resolved on the gels were electroblotted onto nitrocellulose membranes for immunodetection. […] After washing, membranes were incubated for one hour at room temperature with a 1:5000 dilution of secondary antibody, rabbit anti-rat IgG conjugated to horseradish peroxidase, in PBS containing 1% fetal calf serum.

[2] = tested on: Ras-CVLS processing in COS monkey kidney cells; test: COS cell assay: inhibition of Ras-CVLS processing (Western blot); format: cell-based
Description: • 1. In vitro enzyme assays: Inhibition of farnesyl protein transferase and geranylgeranyl protein transferase. Both farnesyl protein transferase (FPT) and geranylgeranyl protein transferase (GGPT) I were partially purified from rat brain by ammonium sulfate fractionation followed by Q-Sepharose (Pharmacia, Inc.) anion exchange chromatography essentially as described by Yokoyama et al (Yokoyama, K., et al., (1991), A protein geranylgeranyltransferase from bovine brain: Implications for protein prenylation specificity, Proc. Natl. Acad. Sci USA 88: 5302-5306, the disclosure of which is incorporated herein by reference thereto). Human farnesyl protein transferase was also expressed in E. coli, using cDNA clones encoding both the a and b subunits. The methods used were similar to those published (Omer, C. et al., (1993), Characterization of recombinant human farnesyl protein transferase: Cloning, expression, farnesyl diphosphate binding, and functional homology with yeast prenyl-protein transferases, Biochemistry 32:5167-5176). Human farnesyl protein transferase was partially-purified from the soluble protein fraction of E. coli as described above. […] Two forms of val^12-Ha-Ras protein were prepared as substrates for these enzymes, differing in their carboxy terminal sequence. One form terminated in cysteine-valine-leucine-serine (Ras-CVLS) the other in cystein-valine-leucine-leucine (Ras-CVLL). Ras-CVLS is a substrate for the farnesyl protein transferase while Ras-CVLL is a substrate for geranylgeranyl protein transferase I. The cDNAs encoding these proteins were constructed so that the proteins contain an amino-terminal extension of 6 histidine residues. Both proteins were expressed in Escherichia coli and purified using metal chelate affinity chromatography. The radiolabelled isoprenyl pyrophosphate substrates, [^3H]farnesyl pyrophosphate and [^3H]geranylgeranyl pyrophosphate, were purchased from DuPont/New England Nuclear. Several methods for measuring farnesyl protein transferase activity have been described (Reiss et al 1990, Cell 62: 81; Schaber et al 1990, J. Biol. Chem. 265: 14701; Manne et al 1990, PNAS 87: 7541; and Barbacid & Manne 1993, U.S. Patent No. 5,185,248). […] The reaction was allowed to proceed for 30 minutes at room temperature and then stopped with 0.5 ml of 4% sodium dodecyl sulfate (SDS) followed by 0.5 ml of cold 30% TCA. Samples were allowed to sit on ice for 45 minutes and precipitated Ras protein was then collected on GF/C filter paper mats using a Brandel cell harvester. Filter mats were washed once with 6% TCA, 2% SDS and radioactivity was measured in a Wallac 1204 Betaplate BS liquid scintillation counter. Percent inhibition was calculated relative to the DMSO vehicle control. The geranylgeranyl protein transferase I assay was essentially identical to the farnesyl protein transferase assay described above, with two exceptions: [^3H]geranylgeranylpyrophosphate replaced farnesyl pyrophosphate as the isoprenoid donor and Ras-CVLL was the protein acceptor. […] Cell-Based Assay: Transient expression of val^12-Ha-Ras-CVLS and val^12-Ha-Ras-CVLL in COS monkey kidney cells: Effect of farnesyl protein transferase inhibitors on Ras processing and on disordered cell growth induced by transforming Ras. COS monkey kidney cells were transfected by electroporation with the plasmid pSV-SPORT (Gibco/BRL) containing a cDNA insert encoding either Ras-CVLS or Ras-CVLL, leading to transient overexpression of a Ras substrate for either farnesyl protein transferase or geranylgeranyl protein transferase I, respectively (see above). Following electroporation, cells were plated into 6-well tissue culture dishes containing 1.5 ml of Dulbecco's-modified Eagle's media (GIBCO, Inc.) supplemented with 10% fetal calf serum and the appropriate farnesyl protein transferase inhibitors. After 24 hours, media was removed and fresh media containing the appropriate drugs was re-added.

[3] = tested on: Normal human HEPM fibroblasts; test: Cell Mat Assay, normal cell mat; format: cell-based; details: normal monolayer
[4] = tested on: DLD-1 (human colon carcinoma cells, ATCC # CCL 221); test: In Vivo Anti-Tumor Studies, subcutaneous DLD-1 tumors; parameters: species or system athymic nu/nu female mice; details: Mus musculus, DLD-1, po, QID, 4 weeks, range over the listed compounds; for inhibition in vivo at 10 mg/kg: 10 mg/kg p.o.; for inhibition in vivo at 50 mg/kg: 50 mg/kg p.o.
Description: Tumor cells (5 X 10^5 to 8 X 10^6) of DLD-1 (human colon carcinoma cells, ATCC # CCL 221) are innolculated subcutaneously into the flank of 5-6 week o;d athymic nu/nu female mice.

[5] = tested on: T24-BAG4 human bladder carcinoma cells expressing an activated H-ras gene; test: Cell Mat Assay, T24 tumor cells; format: cell-based; details: read-out: Tumor (T-24) IC50
[6] = tested on: SW620-BAG human colon carcinoma cells expressing an activated K-ras gene; test: Cell Mat Assay, SW620 tumor cells; format: cell-based
[7] = tested on: DLD-1-BAG human colon carcinoma cells expressing as activated K-ras gene; test: Cell Mat Assay, DLD-1 tumor cells; format: cell-based

| Structure (SMILES) | IC50 ([1]; Table 1, read-out: FPT IC50) | IC50 ([5]; Homo sapiens) | IC50 ([2]; Primates, COS) | IC50 [3] | IC50 ([6]; Mat assay) | IC50 [5] | other results |
| --- | --- | --- | --- | --- | --- | --- | --- |
| O=C(Cc1cc[n+]([O-])cc1)N1CCC(C2c3ccc(Cl)c(Br)c3CCc3cc(Br)cnc32)CC1 (centres unmarked) [14A • HCl salt] | < 3.1 nM | – | – | – | – | – | IC50 [2]: 15 nM |
| NC(=O)N1CCC(CC(=O)N2CCC(C3c4ccc(Cl)cc4C=Cc4cc(Br)cnc43)CC2)CC1 (centres unmarked) [Example 1] | < 34 nM | < 1600 nM | – | – | – | – | IC50 ([3]; Homo sapiens, Fibroblast): > 25000 nM; inhibition in vivo at 10 mg/kg [4]: 7 to 50%; inhibition in vivo at 50 mg/kg [4]: 35.4 to 83% |
| NC(=O)N1CCC(CC(=O)N2CCN([C@H]3c4ccc(Cl)c(Br)c4CCc4cc(Br)cnc43)CC2)CC1 [Example 6] | 3.1 nM | < 1600 nM | 40 nM | – | – | – | IC50 ([6]; Homo sapiens, SW-620, Mat assay): 6240 nM; IC50 ([7]; Homo sapiens, DLD-1, Mat assay): 4000 nM; inhibition in vivo at 10 mg/kg [4]: 7 to 50%; inhibition in vivo at 50 mg/kg [4]: 35.4 to 83% |
| O=C(Cc1cc[n+]([O-])cc1)N1CCC(C2c3ncc(Br)cc3CCc3cc(Cl)cc(Br)c32)CC1 (centres unmarked) [Example 9B] | – | – | – | – | – | – | IC50 ([1]; FPT IC50, Table 1): 3 nM |
| NC(=O)N1CCC(CC(=O)N2CCC([C@@H]3c4ncc(Br)cc4CCc4cc(Cl)cc(Br)c43)CC2)CC1 [Example 10A] | – | – | – | 8000 nM | 1600 nM | < 1600 nM | – |
| NC(=O)N1CCC(CC(=O)N2CCC(C3c4ncc(Br)cc4CCc4cc(Cl)cc(Br)c43)CC2)CC1 (centres unmarked) [Example 10B] | – | – | – | > 25000 nM | 1600 nM | < 1600 nM | IC50 ([7]; Mat assay): 1600 nM |
| O=C(Cc1cc[n+]([O-])cc1)N1CCN([C@@H]2c3ncc(Br)cc3CCc3cc(Cl)cc(Br)c32)CC1 [Example 11B] | > 95 nM | – | – | > 25000 nM | 18000 nM | < 1600 nM | IC50 ([7]; Mat assay): 8000 nM |
| O=C(Cc1cc[n+]([O-])cc1)N1CCC(C2c3ccc(Cl)c(Br)c3CCc3cc(Br)cnc32)CC1 (centres unmarked) [Example 14B] | – | – | – | – | – | – | IC50 ([1]; FPT IC50, Table 1): 5 nM |
| NC(=O)N1CCC(CC(=O)N2CCN([C@@H]3c4ccc(Cl)cc4CCc4cc(Br)cnc43)CC2)CC1 [Example 17] | 43 nM | 1600 nM | 350 nM | – | – | – | IC50 ([3]; Homo sapiens, Fibroblast): > 25000 nM; IC50 ([7]; Homo sapiens, DLD-1, Mat assay): 6250 nM |
| O=C(Cc1cc[n+]([O-])cc1)N1CCN(C2c3ncc(Br)cc3CCc3cc(Cl)cc(F)c32)CC1 (centres unmarked) [Example 21] | 8.4 nM | – | 420 nM | – | – | – | – |
